{"source": "patent US3965109A", "about": "“Certain aryl amino pyridines” (priority 1971, dated 1976)", "key": {"Corn Marigold": {"test_system": "Corn Marigold", "assay": "Selective herbicidal activity", "assay_type": "in vivo, Chrysanthemum segetum", "settings": "2 kg/hectare; 23 days; scale 0 to 5 (complete kill)", "description": "(§1) This Example illustrates the selective herbicidal activity of compounds No. 5 and 12 of Table 1. The compounds, formulated as in Example 5 were sprayed on to pots of soil previously sown with seeds of the plant species shown in Tables 13 and 14.\n(§2) Table 14 gives the results for compound No. 12 of Table 1 The figures are assessments of damage to the plants 23 days after treatment, on a scale of 0 to 5 where 0 is no effect and 5 is complete kill\nCorn marigold Chrysanthemum segetum"}, "[1]": {"test_system": "Phaedon cochleariae (mustard beetles)", "assay": "Pest toxicity test", "assay_type": "in vivo", "settings": "in vivo"}, "Speedwell": {"test_system": "Speedwell", "assay": "Selective herbicidal activity", "assay_type": "in vivo, Veronica spp", "settings": "2 kg/hectare; 23 days; scale 0 to 5 (complete kill)", "description": "as §1"}, "[2]": {"test_system": "Tetranychus telarius (red spider mites, eggs)", "assay": "Pest toxicity test", "assay_type": "in vivo", "settings": "0.1% by weight; French bean; 3 days"}, "Tomato": {"test_system": "Tomato", "assay": "Herbicidal test, pre- and post-emergence", "assay_type": "in vivo", "settings": "10 lb/acre (11.2 kg/ha); scale 0 (no effect) to 3 (complete kill)"}, "Megoura viceae": {"test_system": "Megoura viceae", "assay": "Pest toxicity test", "assay_type": "in vivo", "settings": "0.1% by weight; broad bean; 2 days"}, "Wheat [3]": {"test_system": "Wheat", "assay": "Herbicidal test, pre- and post-emergence", "assay_type": "in vivo", "settings": "10 lb/acre (11.2 kg/ha); scale 0 (no effect) to 3 (complete kill)"}, "Aphis fabae": {"test_system": "Aphis fabae", "assay": "Pest toxicity test", "assay_type": "in vivo", "settings": "0.1% by weight; broad bean; 2 days"}, "Uncinula necator (vine)": {"test_system": "Uncinula necator (vine)", "assay": "Fungicidal test against foliar disease D (foliage spray plus soil drench)", "assay_type": "in vivo", "settings": "100 ppm spray and drench; 10 days"}, "Lettuce": {"test_system": "Lettuce", "assay": "Herbicidal test, pre- and post-emergence", "assay_type": "in vivo", "settings": "10 lb/acre (11.2 kg/ha); scale 0 (no effect) to 3 (complete kill)"}, "Rice": {"test_system": "Rice", "assay": "Further herbicidal test, various rates", "assay_type": "in vivo", "settings": "5 lb/acre; scale 0 to 5 (complete kill)"}, "Pea": {"test_system": "Pea", "assay": "Further herbicidal test, various rates", "assay_type": "in vivo", "settings": "5 lb/acre; scale 0 to 5 (complete kill)"}, "Oat": {"test_system": "Oat", "assay": "Further herbicidal test, various rates", "assay_type": "in vivo", "settings": "5 lb/acre; scale 0 to 5 (complete kill)"}, "Mayweed": {"test_system": "Mayweed", "assay": "Selective herbicidal activity", "assay_type": "in vivo, Tripleurospermum maritimum ssp. inodorum", "settings": "2 kg/hectare; 23 days; scale 0 to 5 (complete kill)", "description": "as §1\nMayweed Tripleurospermum maritimum"}, "Redshank": {"test_system": "Redshank", "assay": "Selective herbicidal activity", "assay_type": "in vivo, Polygonum persicaria", "settings": "2 kg/hectare; 23 days; scale 0 to 5 (complete kill)", "description": "as §1\nRedshank Polygonum persicaria"}, "Barley [4]": {"test_system": "Barley", "assay": "Further herbicidal test, various rates", "assay_type": "in vivo", "settings": "5 lb/acre; scale 0 to 5 (complete kill)"}, "Maize": {"test_system": "Maize", "assay": "Herbicidal test, pre- and post-emergence", "assay_type": "in vivo", "settings": "10 lb/acre (11.2 kg/ha); scale 0 (no effect) to 3 (complete kill)"}, "Knotgrass": {"test_system": "Knotgrass", "assay": "Selective herbicidal activity", "assay_type": "in vivo, Polygonum aviculare", "settings": "2 kg/hectare; 23 days; scale 0 to 5 (complete kill)", "description": "as §1, §2\nKnotgrass Polygonum aviculare"}, "[5]": {"test_system": "Plasmopara viticola (vine)", "assay": "Fungicidal test against foliar disease C (foliage spray plus soil drench)", "assay_type": "in vivo", "settings": "100 ppm spray and drench; 10 days"}, "[6]": {"test_system": "Aedes aegypti (mosquito larvae)", "assay": "Pest toxicity test", "assay_type": "in vivo", "settings": "0.01% by weight; water; 1 day"}, "[7]": {"test_system": "Tetranychus telarius (red spider mites, adults)", "assay": "Pest toxicity test", "assay_type": "in vivo", "settings": "0.1% by weight; French bean; 3 days"}, "[8]": {"test_system": "Piricularia oryzae (rice)", "assay_type": "in vivo", "settings": "100 ppm spray and drench; 7 days"}, "[9]": {"test_system": "Aedes aegypti (mosquito adults)", "assay": "Pest toxicity test", "assay_type": "in vivo", "settings": "0.01% by weight; plywood; 1 day"}, "[10]": {"test_system": "Plutella maculipennis (diamond back moth larvae)", "assay": "Pest toxicity test", "assay_type": "in vivo", "settings": "in vivo"}, "broadleaved plants": {"test_system": "broadleaved plants", "assay": "Selective herbicidal activity", "assay_type": "in vivo", "settings": "Tables 13 and 14", "description": "as §1, §2"}, "Wheat [11]": {"test_system": "Wheat", "assay": "Selective herbicidal activity", "assay_type": "in vivo", "description": "as §1, §2"}, "Barley [12]": {"test_system": "Barley", "assay": "Selective herbicidal activity", "assay_type": "in vivo", "description": "as §1, §2"}, "[13]": {"test_system": "Puccinia recondita (wheat)", "assay": "Fungicidal test against foliar disease A (foliage spray plus soil drench)", "assay_type": "in vivo", "settings": "100 ppm spray and drench; 10 days"}, "[14]": {"test_system": "Agriolimax reticulatus (slugs)", "assay": "Molluscicidal activity test", "assay_type": "in vivo, Agriolimax reticulatus (Mull)", "settings": "pellet with 4% by weight; 6 days; 10°C", "outline": "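Slugs were starved for 24 hours, then housed two per dish, in duplicate, under high humidity at 10°C. They fed on pellets dried to contain 4% w/w of test compound. Mortality was scored on day 6.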"}, "[15]": {"test_system": "Pieris brassicae (cabbage white caterpillars)", "assay": "Pest toxicity test", "assay_type": "in vivo", "settings": "0.1% by weight, 2 days"}, "Kale": {"test_system": "Kale", "assay": "Further herbicidal test, various rates", "assay_type": "in vivo", "settings": "5 lb/acre; scale 0 to 5 (complete kill)"}, "[16]": {"test_system": "Musca domestica (houseflies)", "assay": "Pest toxicity test, contact test", "assay_type": "in vivo", "settings": "0.1% by weight; milk/sugar; 2 days; flies sprayed directly"}, "Carrot": {"test_system": "Carrot", "assay": "Further herbicidal test, various rates", "assay_type": "in vivo", "settings": "5 lb/acre; scale 0 to 5 (complete kill)"}, "Sugar beet": {"test_system": "Sugar beet", "assay": "Further herbicidal test, various rates", "assay_type": "in vivo", "settings": "5 lb/acre; scale 0 to 5 (complete kill)"}, "Onion": {"test_system": "Onion", "assay": "Further herbicidal test, various rates", "assay_type": "in vivo", "settings": "5 lb/acre; scale 0 to 5 (complete kill)"}, "[17]": {"settings": "2 kg/hectare, 23 days, scale 0 to 5 (complete kill)"}}, "data": [{"smiles": "O=[N+]([O-])c1c(F)c(F)c(Nc2c(Cl)c(F)nc(F)c2Cl)c(F)c1F", "note": "[Compound 12, 3,5-Dichloro-2,6-difluoro-4(4-nitro 2,3,5,6-tetrafluoroanilino) pyridine]", "values": [{"measurement": "Damage to plants", "setting": "Corn Marigold", "value": 3.5}, {"measurement": "Mortality grading (kill)", "setting": "[1]", "value": "0 (key: O represents less than 30% kill; 1 represents 30 - 49% kill; 2 represents 60 - 90% kill; 3 represents over 90% kill; C indicates a chemosterilant effect.; A indicates an antifeeding effect.)"}, {"measurement": "Damage to plants", "setting": "Speedwell", "value": 0}, {"measurement": "Mortality grading (kill)", "setting": "[2]", "value": "3 (3 represents over 90% kill)"}, {"measurement": "Damage to plants, post-emergence", "setting": "Tomato", "value": 3}, {"measurement": "Damage to plants, pre-emergence", "setting": "Tomato", "value": 3}, {"measurement": "Mortality grading (kill)", "setting": "Megoura viceae", "value": "3 (3 represents over 90% kill)"}, {"measurement": "Damage to plants, post-emergence", "setting": "Wheat [3]", "value": 0}, {"measurement": "Damage to plants, pre-emergence", "setting": "Wheat [3]", "value": 3}, {"measurement": "Mortality grading (kill)", "setting": "Aphis fabae", "value": "3 (3 represents over 90% kill)"}, {"measurement": "Amount of disease grading, disease D", "setting": "Uncinula necator (vine)", "value": "3 (0 to 5)"}, {"measurement": "Damage to plants, post-emergence", "setting": "Lettuce", "value": 3}, {"measurement": "Damage to plants, pre-emergence", "setting": "Lettuce", "value": 3}, {"measurement": "Damage to plants, post-emergence", "setting": "Rice", "value": 0}, {"measurement": "Damage to plants, post-emergence", "setting": "Pea", "value": 1}, {"measurement": "Damage to plants, pre-emergence", "setting": "Pea", "value": 3}, {"measurement": "Damage to plants, post-emergence", "setting": "Oat", "value": 0}, {"measurement": "Damage to plants, pre-emergence", "setting": "Oat", "value": 0}, {"measurement": "Damage to plants", "setting": "Mayweed", "value": 5}, {"measurement": "Damage to plants", "setting": "Redshank", "value": 5}, {"measurement": "Damage to plants, post-emergence", "setting": "Barley [4]", "value": 2}, {"measurement": "Damage to plants, post-emergence", "setting": "Maize", "value": 1}, {"measurement": "Damage to plants, pre-emergence", "setting": "Maize", "value": 3}, {"measurement": "Damage to plants", "setting": "Knotgrass", "value": 4}, {"measurement": "Amount of disease grading, disease C", "setting": "[5]", "value": "3 (0 to 5)"}, {"measurement": "Mortality grading (kill)", "setting": "[6]", "value": "3 (3 represents over 90% kill)"}, {"measurement": "Mortality grading (kill)", "setting": "[7]", "value": "3 (3 represents over 90% kill)"}, {"measurement": "Amount of disease grading, disease E", "setting": "[8]", "value": "0 (61 to 100)"}, {"measurement": "Mortality grading (kill)", "setting": "[9]", "value": "0 (O represents less than 30% kill)"}, {"measurement": "Mortality grading (kill)", "setting": "[10]", "value": "0 (key: O represents less than 30% kill; 1 represents 30 - 49% kill; 2 represents 60 - 90% kill; 3 represents over 90% kill; C indicates a chemosterilant effect.; A indicates an antifeeding effect.)"}, {"measurement": "damage to the broadleaved plants (in words)", "setting": "broadleaved plants", "value": "caused damage to the broadleaved plants"}, {"measurement": "Damage to plants", "setting": "Wheat [11]; [17]", "value": 0}, {"measurement": "damage to wheat (in words)", "setting": "Wheat [11]; Tables 13 and 14", "value": "undamaged"}, {"measurement": "Damage to plants", "setting": "Barley [12]; [17]", "value": 1}, {"measurement": "damage to barley (in words)", "setting": "Barley [12]; Tables 13 and 14", "value": "undamaged"}, {"measurement": "Amount of disease grading, disease A", "setting": "[13]", "value": "2 (6 to 25)"}, {"measurement": "% Kill of slugs", "setting": "[14]", "value": 50, "unit": "%"}, {"measurement": "Mortality grading (kill)", "setting": "[15]", "value": "0 (O represents less than 30% kill)"}, {"measurement": "Damage to plants, post-emergence", "setting": "Kale", "value": 5}, {"measurement": "Damage to plants, pre-emergence", "setting": "Kale", "value": 4}, {"measurement": "Mortality grading (kill), contact test", "setting": "[16]", "value": "2 (2 represents 60 - 90% kill)"}, {"measurement": "Damage to plants, post-emergence", "setting": "Carrot", "value": 5}, {"measurement": "Damage to plants, pre-emergence", "setting": "Carrot", "value": 4}, {"measurement": "Damage to plants, post-emergence", "setting": "Sugar beet", "value": 5}, {"measurement": "Damage to plants, pre-emergence", "setting": "Sugar beet", "value": 4}, {"measurement": "Damage to plants, post-emergence", "setting": "Onion", "value": 0}]}]}
